# According to PubChem BioAssay (NCI):
#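 96-well plates; 48 h exposure; 5 concentrations. Endpoints by linear interpolation between flanking doses. Not reached: highest tested concentration assigned. Abbreviation: GI50, concentration required for 50% inhibition of growth. At the TGI there is no net growth.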
# Columns and labels:
# Test in all cases: inhibition of tumour cell growth, NCI panel, 48 h
# [1] = system: 786-0 renal
# [2] = system: A498 renal
# [3] = system: A549 NSCLC
# [4] = system: ACHN renal
# [5] = system: BT-549 breast
# [6] = system: CAKI-1 renal
# [7] = system: CCRF-CEM leukemia
# [8] = system: COLO 205 colon
# [9] = system: DU-145 prostate
# [10] = system: EKVX NSCLC
# [11] = system: HCT-116 colon
# [12] = system: HCT-15 colon
# [13] = system: HL-60(TB) leukemia
# [14] = system: HOP-62 NSCLC
# [15] = system: HOP-92 NSCLC
# [16] = system: HS 578T breast
# [17] = system: HT29 colon
# [18] = system: IGROV1 ovarian
# [19] = system: K-562 leukemia
# [20] = system: KM12 colon
# [21] = system: LOX IMVI melanoma
# [22] = system: M14 melanoma
# [23] = system: MALME-3M melanoma
# [24] = system: MCF7 breast
# [25] = system: MDA-MB-435
# [26] = system: MDA-MB-468 breast
# [27] = system: MOLT-4 leukemia
# [28] = system: NCI-H226 lung
# [29] = system: NCI-H23 lung
# [30] = system: NCI-H522 lung
# [31] = system: NCI/ADR-RES ovarian
# [32] = system: OVCAR-3 ovarian
# [33] = system: OVCAR-4 ovarian
# [34] = system: OVCAR-5 ovarian
# [35] = system: OVCAR-8 ovarian
# [36] = system: PC-3 prostate
# [37] = system: RPMI-8226 leukemia
# [38] = system: RXF 393 renal
# [39] = system: SF-268 CNS
# [40] = system: SF-295 CNS
# [41] = system: SF-539 CNS
# [42] = system: SK-MEL-28 melanoma
# [43] = system: SN12C renal
# [44] = system: SNB-19 CNS
# [45] = system: SR leukemia
# [46] = system: SW-620 colon
# [47] = system: T-47D breast
# [48] = system: TK-10 renal
# [49] = system: UACC-257 melanoma
# [50] = system: UACC-62 melanoma
smiles,measurement,setting,value
COc1cc2cc(C(=O)N3C[C@@H](CCl)c4c3cc(OC(=O)N3CCN(C)[C@@H]5CSSC[C@@H]53)c3ccccc43)[nH]c2c(OC)c1OC,GI50,[1],197 nM
same,TGI,[1],579 nM
same,GI50,[2],1230 nM
same,TGI,[2],3880 nM
same,GI50,[3],180 nM
same,TGI,[3],> 100000 nM
same,GI50,[4],28.2 nM
same,TGI,[4],222 nM
same,GI50,[5],165 nM
same,TGI,[5],593 nM
same,GI50,[6],248 nM
same,TGI,[6],> 100000 nM
same,GI50,[7],105 nM
same,TGI,[7],1390 nM
same,GI50,[8],328 nM
same,TGI,[8],1640 nM
same,GI50,[9],62.6 nM
same,TGI,[9],> 100000 nM
same,GI50,[10],230 nM
same,TGI,[10],1810 nM
same,GI50,[11],187 nM
same,TGI,[11],> 100000 nM
same,GI50,[12],247 nM
same,TGI,[12],11700 nM
same,GI50,[13],52 nM
same,TGI,[13],640 nM
same,GI50,[14],205 nM
same,TGI,[14],925 nM
same,GI50,[15],238 nM
same,TGI,[15],809 nM
same,GI50,[16],2260 nM
same,TGI,[16],7040 nM
same,GI50,[17],226 nM
same,TGI,[17],37300 nM
same,GI50,[18],1530 nM
same,TGI,[18],> 100000 nM
same,GI50,[19],397 nM
same,TGI,[19],> 100000 nM
same,GI50,[20],1100 nM
same,TGI,[20],26700 nM
same,GI50,[21],165 nM
same,TGI,[21],829 nM
same,GI50,[22],251 nM
same,TGI,[22],1060 nM
same,GI50,[23],213 nM
same,TGI,[23],719 nM
same,GI50,[24],28.1 nM
same,TGI,[24],12900 nM
same,GI50,[25],836 nM
same,TGI,[25],2930 nM
same,GI50,[26],164 nM
same,TGI,[26],392 nM
same,GI50,[27],69.7 nM
same,TGI,[27],1780 nM
same,GI50,[28],1020 nM
same,TGI,[28],7850 nM
same,GI50,[29],45.4 nM
same,TGI,[29],186 nM
same,GI50,[30],146 nM
same,TGI,[30],531 nM
same,GI50,[31],148 nM
same,TGI,[31],613 nM
same,GI50,[32],489 nM
same,TGI,[32],5540 nM
same,GI50,[33],1620 nM
same,TGI,[33],> 100000 nM
same,GI50,[34],284 nM
same,TGI,[34],1400 nM
same,GI50,[35],151 nM
same,TGI,[35],2210 nM
same,GI50,[36],358 nM
same,TGI,[36],13700 nM
same,GI50,[37],161 nM
same,TGI,[37],569 nM
same,GI50,[38],132 nM
same,TGI,[38],273 nM
same,GI50,[39],175 nM
same,TGI,[39],12200 nM
same,GI50,[40],133 nM
same,TGI,[40],474 nM
same,GI50,[41],172 nM
same,TGI,[41],477 nM
same,GI50,[42],261 nM
same,TGI,[42],762 nM
same,GI50,[43],203 nM
same,TGI,[43],31700 nM
same,GI50,[44],224 nM
same,TGI,[44],6410 nM
same,GI50,[45],37.3 nM
same,TGI,[45],299 nM
same,GI50,[46],264 nM
same,TGI,[46],> 100000 nM
same,GI50,[47],287 nM
same,TGI,[47],> 100000 nM
same,GI50,[48],1290 nM
same,TGI,[48],> 100000 nM
same,GI50,[49],501 nM
same,TGI,[49],2990 nM
same,GI50,[50],147 nM
same,TGI,[50],665 nM
